In paper PMC3700763, “First human dose-escalation study with remogliflozin etabonate, a selective inhibitor of the sodium-glucose transporter 2 (SGLT2), in healthy subjects and in subjects with type 2 diabetes mellitus” (BMC Pharmacology & Toxicology, 2013):
Marks after values point to notes of the source that are not given here.

Key:
[1] = Plasma pharmacokinetics, T2DM subjects; assay type: in vivo, human; settings: for AUC(0-inf) / Cmax / Tmax / half-life: human, plasma analyte; for AUC(0-inf): read-out: AUC(0–∞) Geometric mean (CV%); for Cmax: read-out: Cmax Geometric mean (CV%); for Tmax: read-out: Tmax Median; for half-life: read-out: T½ Geometric mean (CV%) (converted)
Experimental: Six subjects with T2DM received two doses of remogliflozin etabonate and a placebo dose, in a randomized, dose escalating, crossover design, along with an oral glucose load on three study sessions separated by 7–14 days. Full PK and safety profiles were measured on Day 1 of each dosing period. The doses selected for this portion of the study, 50 mg and 500 mg, were based on data obtained in Part A. In each dosing period, subjects were assigned to active vs placebo in a 2:1 ratio. On each dosing day, a series of 2.0 mL blood samples were collected at pre-dose and 10, 20, 30 and 45 min, and 1, 1.25, 1.5, 2, 2.5, 3, 4, 6, 8, 12, 16, and 24 h post-dose for the determination of remogliflozin etabonate, remogliflozin and GSK279782 in plasma by using high-performance liquid chromatography with tandem mass spectrometry (MS/MS) as described. Non-compartmental PK analysis of plasma concentration–time data was performed using WinNonlin Version 4.1 (Pharsight Corporation, Mountainview, CA, USA). The Cmax and Tmax were obtained directly from the data. Areas under the plasma concentration–time curves from time zero to the last quantifiable time point (AUC[0–last]) and extrapolated to infinity (AUC[0–∞]) were calculated using the log-linear trapezoidal method. The terminal plasma elimination rate-constant (λz) was estimated from log-linear regression analysis of the terminal phase of the plasma concentration–time curve, and the T½ was calculated as T½ = ln2/λz. Ratios of AUC(0–∞) remogliflozin to AUC(0–last) remogliflozin etabonate were calculated including molecular weight corrections.

SGLT-2 = system: SGLT-2; parameters: method as in PMID 22851617; settings: relative to remogliflozin; cited from earlier work
[2] = Plasma pharmacokinetics, healthy subjects; assay type: in vivo, human; settings: for Tmax / half-life / AUC(0-inf) / Cmax: human; for AUC(0-inf): read-out: AUC(0-∞) Geometric mean (CV%); for Cmax: read-out: Cmax Geometric mean (CV%); for AUC ratio (remogliflozin/remogliflozin etabonate) Geometric mean: molecular weight corrected
Experimental: Ten healthy subjects were evaluated in 5 study sessions, each separated by approximately 2 weeks. At each study session, subjects received either an oral dose of remogliflozin etabonate or placebo after an overnight fast. Remogliflozin etabonate doses were 20 mg, 50 mg, 150 mg, 500 mg and 1000 mg. Over the course of participation in the study, each subject received 4 of the 5 active remogliflozin etabonate doses and 1 dose of placebo (4:1 active to placebo ratio per treatment period). The available safety and PK results from each dosing period were evaluated before proceeding to the next dose level. On each dosing day, a series of 2.0 mL blood samples were collected at pre-dose and 10, 20, 30 and 45 min, and 1, 1.25, 1.5, 2, 2.5, 3, 4, 6, 8, 12, 16, and 24 h post-dose for the determination of remogliflozin etabonate, remogliflozin and GSK279782 in plasma by using high-performance liquid chromatography with tandem mass spectrometry (MS/MS) as described. Non-compartmental PK analysis of plasma concentration–time data was performed using WinNonlin Version 4.1 (Pharsight Corporation, Mountainview, CA, USA). The Cmax and Tmax were obtained directly from the data. Areas under the plasma concentration–time curves from time zero to the last quantifiable time point (AUC[0–last]) and extrapolated to infinity (AUC[0–∞]) were calculated using the log-linear trapezoidal method. The terminal plasma elimination rate-constant (λz) was estimated from log-linear regression analysis of the terminal phase of the plasma concentration–time curve, and the T½ was calculated as T½ = ln2/λz. Ratios of AUC(0–∞) remogliflozin to AUC(0–last) remogliflozin etabonate were calculated including molecular weight corrections. Safety and pharmacodynamic data were summarized using descriptive statistics. This was a small exploratory study and no formal hypothesis-testing was conducted. Dose proportionality with respect to Cmax, and AUC was assessed using the power model y = α dose^β, where y = Cmax or AUC, and α denotes a random subject effect. The exponent β in the power model will be estimated by regressing the loge-transformed PK parameters on loge dose, i.e. ln(PK parameter) = ln(α) + β * ln(dose). Dose proportionality implied that β = 1 and was assessed by estimating β and its corresponding 90% confidence interval. The power model was fitted by restricted maximum likelihood using SAS Proc Mixed.

SGLT2 over SGLT1 = system: SGLT2 over SGLT1; parameters: method as in PMID 12139397; settings: cited from earlier work
[3] = remogliflozin etabonate 50 mg oral dose
[4] = remogliflozin etabonate 500 mg oral dose (prodrug n = 2)
[5] = remogliflozin etabonate 500 mg oral dose
[6] = plasma, po, 20 mg, plasma analyte, healthy subjects, remogliflozin etabonate 20 mg oral dose, read-out: T½ Geometric mean (CV%) (converted)
[7] = plasma, po, 50 mg, plasma analyte, healthy subjects, remogliflozin etabonate 50 mg oral dose, read-out: T½ Geometric mean (CV%) (converted)
[8] = plasma, po, 150 mg, plasma analyte, healthy subjects, remogliflozin etabonate 150 mg oral dose, read-out: T½ Geometric mean (CV%) (converted)
[9] = plasma, po, 500 mg, plasma analyte, healthy subjects, remogliflozin etabonate 500 mg oral dose, read-out: T½ Geometric mean (CV%) (converted)
[10] = plasma, po, 1000 mg, plasma analyte, healthy subjects, remogliflozin etabonate 1000 mg oral dose, read-out: T½ Geometric mean (CV%) (converted)
[11] = plasma analyte, healthy subjects, remogliflozin etabonate 20 mg oral dose
[12] = plasma analyte, healthy subjects, remogliflozin etabonate 20 mg oral dose, read-out: Tmax Median
[13] = plasma analyte, healthy subjects, remogliflozin etabonate 50 mg oral dose
[14] = plasma analyte, healthy subjects, remogliflozin etabonate 50 mg oral dose, read-out: Tmax Median
[15] = plasma analyte, healthy subjects, remogliflozin etabonate 150 mg oral dose
[16] = plasma analyte, healthy subjects, remogliflozin etabonate 150 mg oral dose, read-out: Tmax Median
[17] = plasma analyte, healthy subjects, remogliflozin etabonate 500 mg oral dose
[18] = plasma analyte, healthy subjects, remogliflozin etabonate 500 mg oral dose, read-out: Tmax Median
[19] = plasma analyte, healthy subjects, remogliflozin etabonate 1000 mg oral dose
[20] = plasma analyte, healthy subjects, remogliflozin etabonate 1000 mg oral dose, read-out: Tmax Median

SMILES: Cc1[nH]nc(O[C@@H]2O[C@H](CO)[C@@H](O)[C@H](O)[C@H]2O)c1Cc1ccc(OC(C)C)cc1 [GSK279782]
- AUC(0-inf) [1, 3]: 0.13 µg·h/mL
- Cmax [1, 3]: 0.0346 µg/mL
- Tmax [1, 3]: 1.74 h
- half-life [1, 3]: 2.05 h
- AUC(0-inf) [1, 4]: 1.29 µg·h/mL
- half-life [1, 4]: 3.28 h
- Cmax [1, 5]: 0.314 µg/mL
- Tmax [1, 5]: 2.75 h
- Potency in inhibiting SGLT-2 in vitro (SGLT-2): as potent as remogliflozin
- Tmax ([2]; plasma, oral, healthy subjects, 20-1000 mg, read-out: median Tmax estimates, range across doses): 1 to 1.5 h
- half-life ([2]; plasma, oral, healthy subjects, 20-1000 mg, read-out: median T½ estimates, range across doses): 1.54 to 3.5 h
- half-life [2, 6]: 1.54 h
- half-life [2, 7]: 2.19 h
- half-life [2, 8]: 2.28 h
- half-life [2, 9]: 3.07 h
- half-life [2, 10]: 3.5 h
- AUC(0-inf) [2, 11]: 0.0518 µg·h/mL
- Cmax [2, 11]: 0.0175 µg/mL
- Tmax [2, 12]: 1.26 h
- AUC(0-inf) [2, 13]: 0.145 µg·h/mL
- Cmax [2, 13]: 0.0502 µg/mL
- Tmax [2, 14]: 1.38 h
- AUC(0-inf) [2, 15]: 0.447 µg·h/mL
- Cmax [2, 15]: 0.155 µg/mL
- Tmax [2, 16]: 1 h
- AUC(0-inf) [2, 17]: 1.52 µg·h/mL
- Cmax [2, 17]: 0.498 µg/mL
- Tmax [2, 18]: 1.5 h
- AUC(0-inf) [2, 19]: 4 µg·h/mL
- Cmax [2, 19]: 1.29 µg/mL
- Tmax [2, 20]: 1.25 h

SMILES: Cc1c(Cc2ccc(OC(C)C)cc2)c(O[C@@H]2O[C@H](CO)[C@@H](O)[C@H](O)[C@H]2O)nn1C(C)C [Remogliflozin, remogliflozin]
- AUC(0–∞) ratio (Remogliflozin/remogliflozin etabonate) Geometric mean (CV%) ([1]; 50 mg oral dose): 59 (62)
- AUC(0–∞) ratio (Remogliflozin/remogliflozin etabonate) Geometric mean (CV%) ([1]; 500 mg oral dose): 54 (38)
- AUC(0-inf) [1, 3]: 0.523 µg·h/mL
- Cmax [1, 3]: 0.195 µg/mL
- Tmax [1, 3]: 1.46 h
- half-life [1, 3]: 1.59 h
- AUC(0-inf) [1, 4]: 5.18 µg·h/mL
- half-life [1, 4]: 3.93 h
- Cmax [1, 5]: 1.89 µg/mL
- Tmax [1, 5]: 2.5 h
- Selectivity for SGLT2 over SGLT1 (SGLT2 over SGLT1): high level of selectivity
- AUC ratio (remogliflozin/remogliflozin etabonate) Geometric mean ([2]; healthy subjects, 20 mg oral dose, n = 5): 84^d
- AUC ratio (remogliflozin/remogliflozin etabonate) Geometric mean ([2]; healthy subjects, 50 mg oral dose): 81
- AUC ratio (remogliflozin/remogliflozin etabonate) Geometric mean ([2]; healthy subjects, 150 mg oral dose): 102
- AUC ratio (remogliflozin/remogliflozin etabonate) Geometric mean ([2]; healthy subjects, 500 mg oral dose): 105
- AUC ratio (remogliflozin/remogliflozin etabonate) Geometric mean ([2]; healthy subjects, 1000 mg oral dose): 95
- Time to appearance in plasma at relatively high concentrations ([2]; healthy subjects, after remogliflozin etabonate dosing): ≤ 10 min
- half-life ([2]; plasma, oral, both populations, independent of dose (abstract), read-out: mean plasma T½): 2 h
- half-life ([2]; plasma, oral, healthy subjects, 20-1000 mg, read-out: mean T½ estimates, range across doses): 1.38 to 2.86 h
- half-life [2, 6]: 1.38 h
- half-life [2, 7]: 1.47 h
- half-life [2, 8]: 1.59 h
- half-life [2, 9]: 2.57 h
- half-life [2, 10]: 2.86 h
- Tmax ([2]; plasma, both populations, after oral RE (abstract), read-out: time to maximum plasma concentration (Tmax)): ~1 h
- AUC(0-inf) [2, 11]: 0.133 µg·h/mL
- Cmax [2, 11]: 0.061 µg/mL
- Tmax [2, 12]: 0.89 h
- AUC(0-inf) [2, 13]: 0.324 µg·h/mL
- Cmax [2, 13]: 0.158 µg/mL
- Tmax [2, 14]: 1.14 h
- AUC(0-inf) [2, 15]: 0.991 µg·h/mL
- Cmax [2, 15]: 0.515 µg/mL
- Tmax [2, 16]: 0.66 h
- AUC(0-inf) [2, 17]: 3.72 µg·h/mL
- Cmax [2, 17]: 1.7 µg/mL
- Tmax [2, 18]: 1.5 h
- AUC(0-inf) [2, 19]: 10.3 µg·h/mL
- Cmax [2, 19]: 4.82 µg/mL
- Tmax [2, 20]: 1.25 h
